ChEMBL document CHEMBL1154399, “Induction of voriconazole metabolism by rifampin in a patient with acute myeloid leukemia: importance of interdisciplinary communication to prevent treatment errors with complex medications” (Antimicrob Agents Chemother, 2007)

Legend:
Type in all cases: ADME, organism-based
[1] = Cmax in […] infection patient at 400 mg, po administered daily; parameters: dose 400 mg, route oral; conditions: human, in vivo
[2] = AUC (0 to infinity) in […] infection patient at 400 mg, po administered daily; parameters: dose 400 mg, route oral, time infinity; conditions: human, plasma
[3] = AUC (0 to infinity) in […] infection patient at 400 mg, po administered daily after 36 days of drug therapy and 30 days of rifampin coadministration; parameters: dose 400 mg, route oral, time infinity; conditions: human, plasma
[4] = Cmax in […] infection patient at 400 mg, po administered daily after 36 days of drug therapy and 30 days of rifampin coadministration; parameters: dose 400 mg, route oral; conditions: human, in vivo
[5] = test system: Homo sapiens; assay: Induction of voriconazole metabolism in po dosed […] infection patient assessed as increase in voriconazole N-oxide metabolite levels after 30 days; conditions: in vivo, 720 h
[6] = test system: Homo sapiens; assay: Induction of voriconazole metabolism in po dosed […] infection patient assessed as increase in hydroxyvoriconazole levels after 30 days; conditions: in vivo, 720 h
[7] = test system: Homo sapiens; assay: Effect on voriconazole metabolism in po dosed […] infection patient assessed as decrease in voriconazole exposure levels after 30 days; parameters: scale not given: the % may be the effect or the level left; conditions: in vivo, 720 h
[8] = test system: Homo sapiens; assay: Induction of voriconazole metabolism in po dosed […] infection patient assessed as increase in dihydroxyvoriconazole levels after 30 days; conditions: in vivo, 720 h

fold change (FC) [5] | fold change (FC) [6] | Activity [7] | fold change (FC) [8] | Compound | Cmax [1] | AUC(0-inf) [2] | AUC(0-inf) [3] | Cmax [4]
 |  |  |  | C[C@@H](c1ncncc1F)[C@](O)(Cn1cncn1)c1ccc(F)cc1F [VORICONAZOLE] | 3.92 µg/mL | 27.4 µg·h/mL | 0.145 µg·h/mL | 0.038 µg/mL
45 | 178 | 99% | 422 | CO[C@H]1/C=C/O[C@@]2(C)Oc3c(C)c(O)c4c(O)c(c(/C=N/N5CCN(C)CC5)c(O)c4c3C2=O)NC(=O)/C(C)=C\C=C\[C@H](C)[C@H](O)[C@@H](C)[C@@H](O)[C@@H](C)[C@H](OC(C)=O)[C@@H]1C [RIFAMPIN] |  |  |  | 
